Assay results taken from US10746738B2, “Claudin-1 peptide reagents and methods” (THE REGENTS OF THE UNIVERSITY OF MICHIGAN, priority 2015, dated 2020).
Entries after “also recorded” stand apart in the source; their conditions may differ.

Key:
SW620 cells = assay: Apparent association time constant by flow cytometry; assay type: binding, human; settings: 5 μM, 4° C.
Method: To measure the apparent association time constant of RTS*-Cy5.5, SW620 cells were washed two times with PBS+0.5% BSA, then 1×10^5 cells were incubated with 5 μM RTS*Cy5.5 at 4° C. for different time intervals ranging from 2-15 min. The cells were immediately washed of unbound peptide several times with PBS+0.5% before analyzing via flow cytometry. The mean fluorescent intensity of SW620 cells at the various time points was ratioed with that of untreated cells and used to calculate the rate constant, k, by fitting the data to a first order kinetics model, y(t)=Imax[1−exp^(−kt)], using Origin 6.1 software.
To measure the apparent association time constant of RTS*-Cy5.5, SW620 cells were washed 2× with PBS+0.5% BSA, then ˜10^5 cells were incubated with 5 μM RTS*-Cy5.5 at 4° C. for time intervals ranging from 2-15 min. The cells were immediately washed of unbound peptide 5× with PBS+0.5% BSA before analyzing with flow cytometry. The mean fluorescence intensity of SW620 cells at the various time points was ratioed with that of untreated cells and used to calculate the rate constant k by fitting the data to a first order kinetics model, y(t)=Imax[1−exp^(−kt)], using Origin 6.1 software. An apparent association time constant k=0.83 min^−1 which corresponds to <1.2 min was measured.

[1] = tested on: proximal human colon specimens; assay: Immunofluorescence of proximal human colon with claudin-1 peptide and antibody
Method: Formalin-fixed, paraffin-embedded (FFPE) specimens from human proximal colon were obtained from the archived tissue bank in the Department of Pathology at the University of Michigan. 5 μm thick sections were cut, mounted onto glass slides (Superfrost Plus, Fischer Scientific). The tissues were deparaffinized using a standard protocol. The sections were incubated with 3 rounds of xylene (3 min each) and 2 rounds of 100% and 95% ethanol (2 min each), and hydrated with water for 5 min. Antigen retrieval was performed with 10 mM citric acid buffer containing 0.05% Tween 20; pH 6.0. The specimens were placed in a citric acid buffer, maintained at a sub-boiling temperature for 15 min, and then allowed to cool to RT for 30 min. […] Confocal fluorescence images were collected with using a 63× oil immersion objective (Leica TCS SP5 Microsystems). […]
The mean fluorescence intensities from 3 boxes with dimensions of 20×20 μm2 placed completely within the surface epithelium of each image was measured for RTS*-Cy5.5 using custom Matlab software (MathWorks Inc). […]
Co-localization of peptide and antibody binding can be appreciated on these merged images, and the extent is characterized by the Pearson's correlation coefficient ρ. We measured the fluorescence intensities from binding of the RTS*-Cy5.5 peptide in a set of 3 boxes with dimensions of 20×20 μm^2 located at random on cells in the epithelium.

RTS*-Cy5.5: RTSPSSR labeled at the C-terminus with Cy5.5 via a GGGSK linker
time corresponding to association time constant (SW620 cells): < 1.2 min
apparent association time constant k (SW620 cells; 2-15 min): 0.83 min⁻¹
binding on confocal microscopy ([1]; normal colonic mucosa and hyperplastic polyps): minimal fluorescence intensity; also recorded: minimal binding
binding on confocal microscopy ([1]; sessile serrated adenomas (SSA) and adenomas): strong binding; also recorded: found to bind; also recorded: Strong staining
